Reference: patent publication US9629830B2, “EphA4 inhibitors as neuroprotective agents” (The Hong Kong University of Science and Technology, priority 2013, dated 2017)
“Also recorded” adds a separate entry of the source.

Target: T1, EphA4 (Rattus norvegicus, UniProt D3ZZK3)
T1 construct: endogenous in cells; host or cells: primary rat cortical neurons (A5), primary rat hippocampal neurons (A7)
Test: Ephrin-A1-induced EphA4 cluster assay in cultured hippocampal neurons
Type: cell-based
Conditions: 30 μM
Experimental: For EphA4 clustering, neurons were stained with anti-EphA4 and anti-Tau-1 antibodies. For the growth cone collapse assay, neurons were stained with Alexa Fluor 555-conjugated phalloidin (Molecular Probes) for filamentous actin and anti-Tau-1 antibody for axons. Collapsed growth cones were scored in a double-blinded manner. The experiments were repeated at least 3 times, and >50 neurons were analyzed for each experiment. Data are presented as mean±SEM.
Rat hippocampal neurons were seeded on 48-well plates coated with poly-D-lysine (50 μg/mL) at 6000 cells per well. Neurons were incubated with Neurobasal medium (Invitrogen) supplemented with 2% B27 (Invitrogen). […] Neurons were then immunostained with anti-EphA4 and anti-Tau-1 antibodies. The cellular imaging and quantification of EphA4 clusters was performed using IN Cell Analyzer 6000 high content assay system (GE Healthcare). EphA4 clusters were quantified by calculating the proportion of total area of EphA4 clusters on axons against Tau positive area. Statistical analysis was performed with one-way ANOVA followed by Newman-Keuls Multiple Comparison Test (Prism 5 GraphPad Software).

T1 sequence (D3ZZK3 20-986): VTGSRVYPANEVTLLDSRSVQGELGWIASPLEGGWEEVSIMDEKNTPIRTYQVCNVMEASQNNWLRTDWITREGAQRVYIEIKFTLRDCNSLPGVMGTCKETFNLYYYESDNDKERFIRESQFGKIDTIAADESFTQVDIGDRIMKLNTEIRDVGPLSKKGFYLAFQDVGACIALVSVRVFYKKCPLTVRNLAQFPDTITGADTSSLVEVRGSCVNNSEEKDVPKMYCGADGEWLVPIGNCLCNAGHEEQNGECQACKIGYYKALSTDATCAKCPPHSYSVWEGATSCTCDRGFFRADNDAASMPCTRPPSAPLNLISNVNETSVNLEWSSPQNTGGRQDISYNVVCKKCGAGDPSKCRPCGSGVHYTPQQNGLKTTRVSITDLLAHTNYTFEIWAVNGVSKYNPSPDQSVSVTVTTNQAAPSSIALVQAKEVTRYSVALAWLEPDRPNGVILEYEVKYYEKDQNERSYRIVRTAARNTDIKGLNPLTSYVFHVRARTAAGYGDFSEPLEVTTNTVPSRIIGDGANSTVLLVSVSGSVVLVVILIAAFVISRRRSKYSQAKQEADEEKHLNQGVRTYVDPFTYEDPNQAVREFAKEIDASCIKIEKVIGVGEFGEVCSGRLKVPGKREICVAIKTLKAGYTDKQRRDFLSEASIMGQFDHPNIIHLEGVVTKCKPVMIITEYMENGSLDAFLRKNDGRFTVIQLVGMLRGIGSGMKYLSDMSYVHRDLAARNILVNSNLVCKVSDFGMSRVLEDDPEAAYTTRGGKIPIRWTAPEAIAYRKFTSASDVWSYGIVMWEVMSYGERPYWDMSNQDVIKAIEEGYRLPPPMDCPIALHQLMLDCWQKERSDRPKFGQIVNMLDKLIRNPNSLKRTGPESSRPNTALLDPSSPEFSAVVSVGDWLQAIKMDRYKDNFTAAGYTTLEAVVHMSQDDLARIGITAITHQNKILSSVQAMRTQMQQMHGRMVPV

| SMILES | potency on EphA4 inhibition (EphA4 clusters) compared to Rhy (words) |
| --- | --- |
| CC[C@H]1CN2CC[C@]3(C(=O)N(CCCCCBr)c4ccccc43)[C@@H]2C[C@@H]1/C(=C\OC)C(=O)OC [RHY-23] | higher potency on EphA4 inhibition |
| CCC1CN2CCC3(C(=O)N(CCCCCCBr)c4ccccc43)C2CC1C(=COC)C(=O)OC (centres unmarked) [RHY-27] | higher potency on EphA4 inhibition |
| CCC1CN2CCC3(C(=O)N(CCCCCCCCCBr)c4ccccc43)C2CC1C(=COC)C(=O)OC (centres unmarked) [RHY-31] | higher potency on EphA4 inhibition |
| CCC1CN2CCC3(C(=O)N(CCCCCCCCBr)c4ccccc43)C2CC1C(=COC)C(=O)OC (centres unmarked) [RHY-34] | higher potency on EphA4 inhibition |
| CCC1CN2CCC3(C(=O)N(CCCCCCCBr)c4ccccc43)C2CC1C(=COC)C(=O)OC (centres unmarked) [RHY-35] | higher potency on EphA4 inhibition |
| CC[C@H]1CN2CC[C@]3(C(=O)N(CCCCCCCCOc4ccc(OC)c(OC)c4)c4ccccc43)[C@@H]2C[C@@H]1/C(=C\OC)C(=O)OC [RHY-37] | more potent effect on EphA4 inhibition than Rhy |
| CCC1CN2CCC3(C(=O)N(CCCCCCOc4ccc(OC)c(OC)c4)c4ccccc43)C2CC1C(=COC)C(=O)OC (centres unmarked) [RHY-39] | more potent effect on EphA4 inhibition than Rhy |
| CCC1CN2CCC3(C(=O)N(CCCCCCOC(=O)c4cc(OC)ccc4[N+](=O)[O-])c4ccccc43)C2CC1C(=COC)C(=O)OC (centres unmarked) [RHY-40] | more potent; also recorded: higher potency on EphA4 inhibition than Rhy |
| CC[C@H]1CN2CC[C@]3(C(=O)N(CCCCCCOc4ccc(OCc5ccccc5)cc4)c4ccccc43)[C@@H]2C[C@@H]1/C(=C\OC)C(=O)OC [RHY-42] | higher potency on EphA4 inhibition |
| CCC1CN2CCC3(C(=O)N(CCCCCCCOc4ccc(OC)c(OC)c4)c4ccccc43)C2CC1C(=COC)C(=O)OC (centres unmarked) [RHY-43] | more potent effect on EphA4 inhibition than Rhy |
| CCC1CN2CCC3(C(=O)N(CCCCCCCOc4ccc(OCc5ccccc5)cc4)c4ccccc43)C2CC1C(=COC)C(=O)OC (centres unmarked) [RHY-44] | higher potency on EphA4 inhibition |
| CC[C@H]1CN2CC[C@]3(C(=O)N(CCCCCCCOC(=O)c4cc(OC)ccc4[N+](=O)[O-])c4ccccc43)[C@@H]2C[C@@H]1/C(=C\OC)C(=O)OC [RHY-45] | more potent; also recorded: higher potency on EphA4 inhibition than Rhy |
| CC[C@H]1CN2CC[C@]3(C(=O)N(CCCCCCCOc4ccc(O)cc4)c4ccccc43)[C@@H]2C[C@@H]1/C(=C\OC)C(=O)OC [RHY-48] | comparable potency to Rhy |
| CCC1CN2CCC3(C(=O)N(CCCCCCCCOc4ccc(OCc5ccccc5)cc4)c4ccccc43)C2CC1C(=COC)C(=O)OC (centres unmarked) [RHY-49] | higher potency on EphA4 inhibition |
| CC[C@H]1CN2CC[C@]3(C(=O)N(CCCCCCCCOC(=O)c4cc(OC)ccc4[N+](=O)[O-])c4ccccc43)[C@@H]2C[C@@H]1/C(=C\OC)C(=O)OC [RHY-50] | more potent; also recorded: higher potency on EphA4 inhibition than Rhy |
| CCC1CN2CCC3(C(=O)N(CCCCCCCCOC(=O)c4ccc(Br)cc4I)c4ccccc43)C2CC1C(=COC)C(=O)OC (centres unmarked) [RHY-52] | More Potent Effect on EphA4 Inhibition than Rhy |
| CCC1CN2CCC3(C(=O)N(CCCCCCCCOc4ccc(O)cc4)c4ccccc43)C2CC1C(=COC)C(=O)OC (centres unmarked) [RHY-54] | significantly more potent than Rhy; also recorded: more potent effect on EphA4 inhibition than Rhy |
| CCC1CN2CCC3(C(=O)N(CCCCCCCCCOc4ccc(OCc5ccccc5)cc4)c4ccccc43)C2CC1C(=COC)C(=O)OC (centres unmarked) [RHY-55] | higher potency on EphA4 inhibition |
| CCC1CN2CCC3(C(=O)N(CCCCCCCCCOC(=O)C=Cc4ccc(OC)cc4)c4ccccc43)C2CC1C(=COC)C(=O)OC (centres unmarked) [RHY-59] | more potent; also recorded: higher potency on EphA4 inhibition than Rhy |
| CCC1CN2CCC3(C(=O)N(CCCCCCCCCOc4ccc(O)cc4)c4ccccc43)C2CC1C(=COC)C(=O)OC (centres unmarked) [RHY-60] | more potent effect on EphA4 inhibition than Rhy |

Same assay, conditions: 30 μM, 20 min pretreatment, then ephrin-A1 40 min; some sentences add 'when compared to Rhy'

| SMILES | reduction of ephrin-A1-induced EphA4 clustering |
| --- | --- |
| CC[C@H]1CN2CC[C@]3(C(=O)N(CCCCCCCCCl)c4ccccc43)[C@@H]2C[C@@H]1/C(=C\OC)C(=O)OC [RHY-26] | ~80% |

Same assay, conditions: 30 μM; listed as RHY60

| SMILES | potency on EphA4 inhibition (EphA4 clusters) compared to Rhy (words) |
| --- | --- |
| CCC1CN2CCC3(C(=O)N(CCCCCCCCCOc4ccc(O)cc4)c4ccccc43)C2CC1C(=COC)C(=O)OC (centres unmarked) [RHY-60] | significantly more potent than Rhy |

Same assay, conditions: 50 μM

| SMILES | inhibitory effect on EphA4 cluster formation | potency on EphA4 inhibition (EphA4 clusters) compared to Rhy (words) |
| --- | --- | --- |
| CCC1CN2CCC3(C(=O)N(CC=Cc4ccccc4)c4ccccc43)C2CC1C(=COC)C(=O)OC (centres unmarked) [RHY-9] | most significant | significantly reduced the EphA4 clusters compared to Rhy |
| CCC1CN2CCC3(C(=O)N(Cc4ccccc4-c4ccccc4)c4ccccc43)C2CC1C(=COC)C(=O)OC (centres unmarked) [RHY-10] | most significant | significantly reduced the EphA4 clusters compared to Rhy |
| C=CCN1C(=O)C2(CCN3CC(CC)C(C(=COC)C(=O)OC)CC32)c2ccccc21 (centres unmarked) [RHY-17] | most significant | significantly reduced the EphA4 clusters compared to Rhy |
| CCC1CN2CCC3(C(=O)N(Cc4cccc(Cl)c4)c4ccccc43)C2CC1C(=COC)C(=O)OC (centres unmarked) [RHY-19] | most significant | significantly reduced the EphA4 clusters compared to Rhy |
| CCC1CN2CCC3(C(=O)N(CC(=O)c4ccc(OC)cc4)c4ccccc43)C2CC1C(=COC)C(=O)OC (centres unmarked) [RHY-28] | most significant | significantly reduced the EphA4 clusters compared to Rhy |
| CCC1CN2CCC3(C(=O)N(CCCCCCCCCNCCCCCCN)c4ccccc43)C2CC1C(=COC)C(=O)OC (centres unmarked) [RHY-32] | – | higher potency on EphA4 inhibition |
| CCC1CN2CCC3(C(=O)N(CCCCCCOC(=O)c4ccc(OC)c(OC)c4)c4ccccc43)C2CC1C(=COC)C(=O)OC (centres unmarked) [RHY-33] | – | comparable potency as Rhy |
| CC[C@H]1CN2CC[C@]3(C(=O)N(CCCCCCCCOC(=O)c4ccc(OC)c(OC)c4)c4ccccc43)[C@@H]2C[C@@H]1/C(=C\OC)C(=O)OC [RHY-36] | – | more potent activity than Rhy; also recorded: more potent effect on EphA4 inhibition than Rhy |
| CCC1CN2CCC3(C(=O)N(CCCCCCCOC(=O)c4ccc(OC)c(OC)c4)c4ccccc43)C2CC1C(=COC)C(=O)OC (centres unmarked) [RHY-38] | – | more potent activity than Rhy; also recorded: more potent effect on EphA4 inhibition than Rhy |
| CCC1CN2CCC3(C(=O)N(CCCCCCNCCN4CCCC4)c4ccccc43)C2CC1C(=COC)C(=O)OC (centres unmarked) [RHY-41] | – | higher potency on EphA4 inhibition |
| CC[C@H]1CN2CC[C@]3(C(=O)N(CCCCCCCNCCN4CCCC4)c4ccccc43)[C@@H]2C[C@@H]1/C(=C\OC)C(=O)OC [RHY-46] | – | higher potency on EphA4 inhibition |
| CCC1CN2CCC3(C(=O)N(CCCCCCCNCCCn4ccnc4)c4ccccc43)C2CC1C(=COC)C(=O)OC (centres unmarked) [RHY-47] | – | higher potency on EphA4 inhibition |
| CCC1CN2CCC3(C(=O)N(CCCCCCCCCOC(=O)c4ccc(OC)c(OC)c4)c4ccccc43)C2CC1C(=COC)C(=O)OC (centres unmarked) [RHY-57] | – | more potent activity than Rhy; also recorded: more potent effect on EphA4 inhibition than Rhy |

Same assay, conditions: dose-dependent experiment, FIG. 17

| SMILES | inhibitory effect on EphA4 clusters (potency) compared to Rhy |
| --- | --- |
| CC[C@H]1CN2CC[C@]3(C(=O)N(CCCCCCCCCl)c4ccccc43)[C@@H]2C[C@@H]1/C(=C\OC)C(=O)OC [RHY-26] | 5 fold |
| CC[C@H]1CN2CC[C@]3(C(=O)N(CCCCCCCCOc4ccc(OC)c(OC)c4)c4ccccc43)[C@@H]2C[C@@H]1/C(=C\OC)C(=O)OC [RHY-37] | 12 fold |

Same assay, conditions: same assay system; no data given

| SMILES | potency as EphA4 inhibitor |
| --- | --- |
| CCC1CN2CCC3(C(=O)N(CCCCCCCCNCCN4CCCC4)c4ccccc43)C2CC1C(=COC)C(=O)OC (centres unmarked) [RHY-53] | tested and verified |
| CCC1CN2CCC3(C(=O)N(CCCCl)c4ccccc43)C2CC1C(=COC)C(=O)OC (centres unmarked) [RHY-61] | tested and verified |
| CCC1CN2CCC3(C(=O)N(CCCCCCCCCCl)c4ccccc43)C2CC1C(=COC)C(=O)OC (centres unmarked) [RHY-62] | tested and verified |
| CCC1CN2CCC3(C(=O)N(CCCCCCCl)c4ccccc43)C2CC1C(=COC)C(=O)OC (centres unmarked) [RHY-63] | tested and verified |
| CCC1CN2CCC3(C(=O)N(CCCCCCCCl)c4ccccc43)C2CC1C(=COC)C(=O)OC (centres unmarked) [RHY-64] | tested and verified |
